Earlier results in US20060014801A1, “Prevention and treatment of cognitive impairment using (R)-(-)-5-methyl-1-nicotynoyl-2-pyrazoline (MNP) and analogs” (The Johns Hopkins University, priority 2002, published 2006).

Test system: aged rats
Conditions: cited from earlier work

In the case of `CO/N=C(\C(=O)N[C@@H]1C(=O)N2C(C(=O)O)=C(CSc3nc(=O)c(=O)[nH]n3C)CS[C@H]12)c1csc(N)n1` [ceftriaxone], the Cognitive function is listed as “improvements of cognitive function”.
